Laboratory results published in ChEMBL document CHEMBL6092226, “Tilting the Scales toward EGFR Mutant Selectivity: Expanding the Scope of Bivalent "Type V" Kinase Inhibitors” (J Med Chem, 2024).

How the values were obtained:
BaF3 [1] = assay: Antiproliferative activity against mouse BaF3 cells harboring EGFR exon 19del mutant incubated for 72 hrs by MTT assay; format: functional, cell-based; settings: BaF3, 72 h
BaF3 [2] = assay: cells; settings: Mus musculus, BaF3, 72 h
BaF3 [3] = assay: cells; settings: Mus musculus, BaF3, 72 h; remark: listed apart in the source
BaF3 [4] = assay: cells; settings: Mus musculus, BaF3, 72 h; remark: listed apart in the source
[5] = target: T1, Epidermal growth factor receptor (Homo sapiens, UniProt P00533, C797S/L858R/T790M); design: species or system Sf9
BaF3 [6] = format: functional, cell-based; settings: Mus musculus, BaF3, 72 h
HCC827 = assay: cells; settings: Homo sapiens, HCC827, 72 h
[7] = Metabolic stability in pooled male human liver microsomes at 150 uM measured after 2 hrs in presence of NADPH regenerating system by LC-MS analysis; format: ADME, Microsome
[8] = Drug metabolism in pooled male human liver microsomes assessed as thioether oxidation mediated metabolite formation at 150 uM measured after 2 hrs by LC-MS analysis; format: ADME, Microsome
cells = settings: Homo sapiens, NCI-H1975, 72 h
[9] = target: T2, Epidermal growth factor receptor (Homo sapiens, UniProt P00533); assay: Reversible inhibition of wildtype EGFR (696 to 1022 residues) (unknown origin) extracted from baculovirus infected Sf9 insect cells in presence of ATP by HTRF assay
[10] = target: T3, Epidermal growth factor receptor (Homo sapiens, UniProt P00533, L858R); assay: Reversible inhibition of EGFR L858R mutant (696 to 1022 residues) (unknown origin) extracted from baculovirus infected Sf9 insect cells in presence of ATP by HTRF assay
[11] = target: T4, Epidermal growth factor receptor (Homo sapiens, UniProt P00533, L858R/T790M); assay: Reversible inhibition of EGFR L858R/T790M mutant (696 to 1022 residues) (unknown origin) extracted from baculovirus infected Sf9 insect cells in presence of ATP by HTRF assay
[12] = target: T1, Epidermal growth factor receptor; design: species or system Sf9; remark: listed apart in the source
[13] = target: T2, Epidermal growth factor receptor; assay: Time-dependent irreversible inhibition of N-terminal GST-tagged wildtype human EGFR cytoplasmic domain (669 to 1210 residues) extracted from Sf21 insect cells assessed as apparent inactivation constant (Ki) incubated for 240 mins in presence of ATP by fluorescence based analysis; settings: read-out: Ki(app)
[14] = target: T3, Epidermal growth factor receptor; assay: Time-dependent irreversible inhibition of GST-tagged EGFR L858R mutant cytoplasmic domain (669 to 1210 residues) (unknown origin) assessed as apparent inactivation constant (Ki) incubated for 240 mins in presence of ATP by fluorescence based analysis; settings: read-out: Ki(app)
[15] = target: T4, Epidermal growth factor receptor; assay: Time-dependent irreversible inhibition of GST-tagged EGFR L858R/T790M mutant cytoplasmic domain (669 to 1210 residues) (unknown origin) assessed as apparent inactivation constant (Ki) incubated for 240 mins in presence of ATP by fluorescence based analysis; settings: read-out: Ki(app)

T1 sequence (P00533 25-1210 T790M/C797S/L858R limits assumed): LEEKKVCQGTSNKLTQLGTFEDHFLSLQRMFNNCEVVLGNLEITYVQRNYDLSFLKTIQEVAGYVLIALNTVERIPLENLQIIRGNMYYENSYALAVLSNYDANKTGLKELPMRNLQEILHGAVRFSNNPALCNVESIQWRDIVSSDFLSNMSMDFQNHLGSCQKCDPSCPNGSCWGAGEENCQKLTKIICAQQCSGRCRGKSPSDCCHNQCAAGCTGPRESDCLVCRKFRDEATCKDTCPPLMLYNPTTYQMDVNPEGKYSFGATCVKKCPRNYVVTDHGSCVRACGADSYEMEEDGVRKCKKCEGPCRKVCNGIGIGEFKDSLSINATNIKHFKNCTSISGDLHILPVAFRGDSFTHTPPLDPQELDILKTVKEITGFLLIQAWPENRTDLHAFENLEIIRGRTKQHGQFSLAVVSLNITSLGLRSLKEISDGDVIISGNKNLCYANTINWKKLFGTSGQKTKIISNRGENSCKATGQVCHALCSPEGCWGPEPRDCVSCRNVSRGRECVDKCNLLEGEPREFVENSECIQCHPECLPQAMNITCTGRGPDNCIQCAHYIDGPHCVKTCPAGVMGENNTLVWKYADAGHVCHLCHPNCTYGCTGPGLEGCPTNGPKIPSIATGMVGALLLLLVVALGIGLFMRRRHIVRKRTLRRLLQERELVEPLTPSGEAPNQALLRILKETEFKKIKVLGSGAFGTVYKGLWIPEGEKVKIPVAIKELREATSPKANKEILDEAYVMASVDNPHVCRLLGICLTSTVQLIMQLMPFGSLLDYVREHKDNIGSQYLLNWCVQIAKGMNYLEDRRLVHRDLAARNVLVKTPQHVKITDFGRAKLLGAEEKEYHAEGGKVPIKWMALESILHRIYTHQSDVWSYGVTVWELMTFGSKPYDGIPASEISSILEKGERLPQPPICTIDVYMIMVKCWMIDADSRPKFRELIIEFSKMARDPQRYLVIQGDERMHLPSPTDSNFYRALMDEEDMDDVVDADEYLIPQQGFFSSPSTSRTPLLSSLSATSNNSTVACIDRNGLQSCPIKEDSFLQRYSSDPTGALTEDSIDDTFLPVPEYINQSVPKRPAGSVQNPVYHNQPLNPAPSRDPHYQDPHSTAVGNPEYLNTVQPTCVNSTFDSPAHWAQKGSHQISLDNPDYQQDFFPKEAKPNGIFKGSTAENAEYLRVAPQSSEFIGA
T4 sequence (P00533 25-1210 T790M/L858R limits assumed): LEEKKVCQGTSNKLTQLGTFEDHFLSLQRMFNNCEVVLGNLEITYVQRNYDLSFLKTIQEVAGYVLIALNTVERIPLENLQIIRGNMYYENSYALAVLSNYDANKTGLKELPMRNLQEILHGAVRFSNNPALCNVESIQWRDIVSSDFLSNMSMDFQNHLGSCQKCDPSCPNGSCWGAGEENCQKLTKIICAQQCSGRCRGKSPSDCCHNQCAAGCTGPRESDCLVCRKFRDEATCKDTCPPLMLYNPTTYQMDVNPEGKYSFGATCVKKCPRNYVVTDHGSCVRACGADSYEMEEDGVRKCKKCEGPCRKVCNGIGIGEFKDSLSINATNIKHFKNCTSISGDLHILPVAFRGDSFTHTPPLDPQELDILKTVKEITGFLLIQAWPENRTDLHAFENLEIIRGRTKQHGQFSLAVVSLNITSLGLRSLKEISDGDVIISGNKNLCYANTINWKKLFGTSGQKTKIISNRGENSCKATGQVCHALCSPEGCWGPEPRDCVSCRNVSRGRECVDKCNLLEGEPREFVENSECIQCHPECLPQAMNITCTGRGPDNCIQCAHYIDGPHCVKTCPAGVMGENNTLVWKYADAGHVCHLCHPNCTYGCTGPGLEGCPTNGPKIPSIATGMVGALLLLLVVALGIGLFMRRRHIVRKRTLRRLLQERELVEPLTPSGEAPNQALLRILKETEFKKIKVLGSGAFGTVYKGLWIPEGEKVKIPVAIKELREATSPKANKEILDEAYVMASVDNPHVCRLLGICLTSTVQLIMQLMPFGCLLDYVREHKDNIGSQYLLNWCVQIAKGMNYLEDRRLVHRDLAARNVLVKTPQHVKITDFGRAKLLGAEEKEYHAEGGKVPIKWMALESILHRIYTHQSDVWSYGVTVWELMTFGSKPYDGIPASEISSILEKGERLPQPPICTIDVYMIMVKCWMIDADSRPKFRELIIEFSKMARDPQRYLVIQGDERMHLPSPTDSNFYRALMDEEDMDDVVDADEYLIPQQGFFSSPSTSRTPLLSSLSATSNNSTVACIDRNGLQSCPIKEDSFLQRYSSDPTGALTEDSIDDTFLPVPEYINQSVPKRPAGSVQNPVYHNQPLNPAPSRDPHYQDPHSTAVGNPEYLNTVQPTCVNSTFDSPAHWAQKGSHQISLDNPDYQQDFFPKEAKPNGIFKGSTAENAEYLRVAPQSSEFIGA
T2 sequence (P00533 whole entry, the tested form may be a part): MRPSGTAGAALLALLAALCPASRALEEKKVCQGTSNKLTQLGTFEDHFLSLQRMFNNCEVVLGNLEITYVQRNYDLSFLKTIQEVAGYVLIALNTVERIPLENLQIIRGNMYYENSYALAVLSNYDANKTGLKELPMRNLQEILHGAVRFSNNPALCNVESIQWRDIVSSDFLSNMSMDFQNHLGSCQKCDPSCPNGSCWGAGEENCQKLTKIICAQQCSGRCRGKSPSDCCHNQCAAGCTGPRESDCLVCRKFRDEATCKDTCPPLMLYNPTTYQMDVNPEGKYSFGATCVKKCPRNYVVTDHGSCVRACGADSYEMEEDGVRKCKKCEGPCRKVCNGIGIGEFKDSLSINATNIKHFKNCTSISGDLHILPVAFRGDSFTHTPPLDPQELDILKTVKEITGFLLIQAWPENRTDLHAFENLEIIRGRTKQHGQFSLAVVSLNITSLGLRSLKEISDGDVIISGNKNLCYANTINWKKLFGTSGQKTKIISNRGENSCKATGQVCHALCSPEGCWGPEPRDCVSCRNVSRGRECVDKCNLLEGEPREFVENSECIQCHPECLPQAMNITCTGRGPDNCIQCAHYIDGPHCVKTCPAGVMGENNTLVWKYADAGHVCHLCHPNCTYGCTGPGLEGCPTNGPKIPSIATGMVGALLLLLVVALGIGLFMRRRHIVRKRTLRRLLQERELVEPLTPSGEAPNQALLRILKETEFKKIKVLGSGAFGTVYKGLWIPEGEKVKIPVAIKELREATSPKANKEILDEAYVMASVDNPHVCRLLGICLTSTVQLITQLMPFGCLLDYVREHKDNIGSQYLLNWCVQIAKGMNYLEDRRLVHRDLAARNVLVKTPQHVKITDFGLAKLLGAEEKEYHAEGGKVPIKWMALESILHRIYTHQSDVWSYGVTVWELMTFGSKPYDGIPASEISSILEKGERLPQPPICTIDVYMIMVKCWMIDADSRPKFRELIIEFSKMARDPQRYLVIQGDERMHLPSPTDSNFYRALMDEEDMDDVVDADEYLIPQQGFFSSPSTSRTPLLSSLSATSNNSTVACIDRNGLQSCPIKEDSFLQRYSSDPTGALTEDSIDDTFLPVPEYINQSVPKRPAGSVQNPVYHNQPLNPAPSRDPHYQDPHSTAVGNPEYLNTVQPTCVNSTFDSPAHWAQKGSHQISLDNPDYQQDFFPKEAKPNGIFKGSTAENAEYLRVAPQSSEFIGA
T3 sequence (P00533 25-1210 L858R limits assumed): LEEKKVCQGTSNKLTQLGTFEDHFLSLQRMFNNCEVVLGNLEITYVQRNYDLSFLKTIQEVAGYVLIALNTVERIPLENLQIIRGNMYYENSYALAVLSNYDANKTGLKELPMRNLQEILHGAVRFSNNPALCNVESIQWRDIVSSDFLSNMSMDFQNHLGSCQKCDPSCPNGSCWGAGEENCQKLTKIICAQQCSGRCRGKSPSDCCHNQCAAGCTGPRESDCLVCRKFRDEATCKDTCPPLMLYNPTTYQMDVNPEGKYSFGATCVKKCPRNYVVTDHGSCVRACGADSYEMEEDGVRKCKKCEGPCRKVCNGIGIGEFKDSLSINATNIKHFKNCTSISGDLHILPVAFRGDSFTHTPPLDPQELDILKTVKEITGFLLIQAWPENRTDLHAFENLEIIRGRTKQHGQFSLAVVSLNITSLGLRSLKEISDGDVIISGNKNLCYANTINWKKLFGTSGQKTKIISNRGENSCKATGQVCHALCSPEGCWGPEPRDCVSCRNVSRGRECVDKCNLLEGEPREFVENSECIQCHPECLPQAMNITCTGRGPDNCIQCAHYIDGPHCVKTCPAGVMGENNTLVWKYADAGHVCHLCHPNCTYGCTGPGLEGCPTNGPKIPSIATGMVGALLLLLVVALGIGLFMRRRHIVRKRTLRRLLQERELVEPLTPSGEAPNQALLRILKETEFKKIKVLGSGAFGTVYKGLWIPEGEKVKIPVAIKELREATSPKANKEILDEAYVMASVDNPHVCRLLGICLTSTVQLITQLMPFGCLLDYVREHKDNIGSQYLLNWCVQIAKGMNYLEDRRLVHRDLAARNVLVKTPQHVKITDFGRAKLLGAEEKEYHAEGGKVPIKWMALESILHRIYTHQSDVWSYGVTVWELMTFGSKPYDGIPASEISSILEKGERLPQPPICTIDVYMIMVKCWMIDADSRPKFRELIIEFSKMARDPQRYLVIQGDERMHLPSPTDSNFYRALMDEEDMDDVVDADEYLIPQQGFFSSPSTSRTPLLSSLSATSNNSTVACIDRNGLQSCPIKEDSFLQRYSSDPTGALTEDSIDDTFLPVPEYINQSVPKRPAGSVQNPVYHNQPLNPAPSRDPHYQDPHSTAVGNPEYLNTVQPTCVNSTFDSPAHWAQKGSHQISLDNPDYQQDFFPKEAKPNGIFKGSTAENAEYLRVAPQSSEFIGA

SMILES	EC50 (BaF3 [1]) [nM]	EC50 (BaF3 [2]) [nM]	EC50 (BaF3 [3]) [nM]	EC50 (BaF3 [4]) [nM]	EC50 (BaF3 [6]) [nM]	also measured
CCOc1nc(-c2cccc(NC(=O)c3cccc(O)c3CN3Cc4ccccc4C3=O)c2)c(-c2ccnc(Nc3ccccc3)c2)[nH]1	> 10000	2900	> 10000	> 10000	–	–
C=CC(=O)Nc1ccc(OC)c(Nc2cc(-c3[nH]c(SC)nc3-c3cccc(NC(=O)c4c(F)cccc4CN4Cc5ccccc5C4=O)c3)ccn2)c1	530	180	1100	720	> 10000	IC50 [5]: 340 nM
CCc1nc(-c2cccc(NC(=O)c3cccc(O)c3CN3Cc4ccccc4C3=O)c2)c(-c2ccnc(Nc3ccccc3)c2)[nH]1	–	3900	> 10000	> 10000	> 10000	–
CCOc1nc(-c2cccc(NC(=O)c3cccc(O)c3CN3Cc4ccccc4C3=O)c2)c(-c2ccnc(NC(C)=O)c2)[nH]1	> 10000	> 10000	> 10000	> 10000	–	–
C=CC(=O)Nc1ccc(OC)c(Nc2cc(-c3[nH]c(SC)nc3-c3cccc(NC(=O)c4c(F)ccc(O)c4CN4Cc5ccccc5C4=O)c3)ccn2)c1	1400	370	1200	1100	> 10000	IC50 [5]: 1.6 nM
CSc1nc(-c2cccc(NC(=O)c3cccc(O)c3CN3Cc4ccccc4C3=O)c2)c(-c2ccnc(NC(C)=O)c2)[nH]1	> 10000	> 10000	> 10000	> 10000	–	–
CCC(=O)Nc1ccc(OC)c(Nc2cc(-c3[nH]c(SC)nc3-c3cccc(NC(=O)c4cccc(O)c4CN4Cc5ccccc5C4=O)c3)ccn2)c1	1800	1000	> 10000	1100	1700	EC50 (HCC827): 270 nM
C=CC(=O)Nc1ccc(OC)c(Nc2cc(-c3[nH]c(CC)nc3-c3cccc(NC(=O)c4cccc(O)c4CN4Cc5ccccc5C4=O)c3)ccn2)c1	1500	220	590	1000	2100	IC50 [5]: 0.91 nM; Stability [7]: Stable; Drug metabolism [8]: metabolite_notdetected; EC50 (cells): 300 nM; EC50 (HCC827): 290 nM
CCc1nc(-c2cccc(NC(=O)c3cccc(O)c3CN3Cc4ccccc4C3=O)c2)c(-c2ccnc(NC(C)=O)c2)[nH]1	> 10000	> 10000	> 10000	> 10000	–	–
CSc1nc(-c2cccc(NC(=O)c3cccc(O)c3CN3Cc4ccccc4C3=O)c2)c(-c2ccnc(Nc3ccccc3)c2)[nH]1	4000	> 10000	> 10000	> 10000	–	–
CS(=O)(=O)CCNCc1ccc(-c2ccc3ncnc(Nc4ccc(OCc5cccc(F)c5)c(Cl)c4)c3c2)o1 [LAPATINIB]	–	–	–	–	–	EC50 (cells): > 10000 nM; EC50 (HCC827): > 10000 nM
CSc1nc(-c2cccc(NC(=O)c3ccccc3CN3Cc4ccccc4C3=O)c2)c(-c2ccnc(NC(C)=O)c2)[nH]1	–	–	–	–	–	IC50 [9]: > 1000 nM; IC50 [10]: 120 nM; IC50 [11]: 460 nM; IC50 [12]: 450 nM
C=CC(=O)Nc1ccc(OC)c(Nc2cc(-c3[nH]c(SC)nc3-c3cccc(NC(=O)c4ccccc4CN4Cc5ccccc5C4=O)c3)ccn2)c1	1400	170	880	1700	> 10000	Ki [13]: 814 nM; Ki [14]: 234 nM; Ki [15]: 310 nM; IC50 [5]: > 1000 nM
CSc1nc(-c2cccc(NC(=O)c3cccc(O)c3CN3Cc4ccccc4C3=O)c2)c(-c2ccnc(Nc3ccc(N4CCNCC4)cc3)c2)[nH]1	> 10000	> 10000	> 10000	> 10000	> 10000	–
